According to article PMC7002685, “Inhibition of vascular calcification by inositol phosphates derivatized with ethylene glycol oligomers” (Nature Communications, 2020):
Values joined by “and” are separate entries in the source; they are usually repeats but may differ in a detail not shown here. Identical values can stand only once. Like-named read-outs stand apart in the source and are kept apart here.

What was measured:
[1] = PK s.c. in rats with vitamin D and warfarin-induced VC; assay type: in vivo; settings: Sprague-Dawley, rat, plasma, sc, 50 mg/kg, 50 mg/kg s.c., Cardiovascular calcification model
Experimental: Moreover, the systemic exposure of the compound after s.c. administration was assessed in rats with VC (Fig. 4f, Supplementary Table 3).
To study PK in rats presenting with VC, plasma samples were used from a sub-group of the study where calcification was induced with vitamin D and warfarin treatment.
(§1) The bioanalytical method for (OEG2)2-IP4 in rat plasma was further optimized, qualified, and applied to the comparative PK study in adenine and high-phosphate diet-induced VC vs. vitamin D-induced VC animals. The LC-MS/MS analyses were carried out using a Dionex Ultimate RSLC ultra-high-pressure liquid chromatography (UHPLC) system (Thermo Fisher Scientific) coupled with a TSQ Quantiva^TM triple quadrupole mass spectrometer. The samples were stored at 5 °C in the autosampler prior to and during the analyses. […] Gradient elution (solvent A, 20 mM ammonium acetate in water (pH 5); solvent B, ACN) was used according to the program reported in Supplementary Table 18. The injection volume was 10 µL. MS/MS parameters (MRM acquisition, cycle time 0.2 s) for (OEG2)2-IP4 are reported in Supplementary Table 19 and the ESI source, working in negative ionization mode, applied the following parameters: static spray voltage 3000 V ion transfer tube and vaporizer temperatures at 400 and 100 °C, respectively; sheath and auxiliary gas (nitrogen) flow rates at 80 and 3 (arbitrary units). For the quantitative determination in rat plasma, product ion m/z 158.9 was selected because it provided the best sensitivity and selectivity. Calibration curve and quality control samples were prepared by adding 2 μL of working solution to 38 μL rat blank K3EDTA plasma (Biochemed, Winchester, VA) and precipitating plasma protein by addition of 120 μL of MeOH including internal standard OEG11-IP5. Samples were vortexed 1 min and centrifuged at (22,000 × g, 4 °C, 10 min). Supernatants (90 μL) were then transferred into a glass vial with insert and injected onto LC-MS/MS system. Both in adenine and high-phosphate diet-induced VC and vitamin D-induced VC rat PK samples were prepared for analysis in an analogous manner as done for spiked samples (assay volume 40 μL). The LLOQ and LOD in rat plasma for (OEG2)2-IP4 were 50 and 10 ng/mL, respectively. The ULOQ and detection was 50,000 ng/mL.

[2] = PK i.v. bolus in healthy and adenine/high-phosphate-diet (uremic) rats; assay type: in vivo, male Sprague-Dawley rats; parameters: plasma concentration (Figure 4g): unit not given here; settings: for AUC(0-inf) / Cmax / clearance / half-life / AUC(0-t) / MRT last: serum, 10 mg/kg i.v. bolus; for AUC(0-t): read-out: AUC0-240 (converted); for MRT last: read-out: MRT0-240 (converted)
Experimental: For many drugs, the PK profile depends on the patient’s renal status. Therefore, (OEG2)2-IP4 PK profile was also determined in an adenine and high-phosphate-diet-induced rat model of uremia, in which the compound was administered after serum creatinine levels had increased by fourfold relative to baseline (Fig. 4g, h). […] Similar results were observed following s.c. administration (Supplementary Table 5).
To study PK in uremic animals, male Sprague-Dawley rats (Charles River Laboratories, L’Arbresle, France) were housed two per cage with free access to water and standard chow (rat/mouse maintenance diet, SSNIFF Spezialdiäten GmbH, Soest, Germany) and submitted to a 12-h light/dark cycle. Animals were fed a low-protein (2.5%) diet containing high phosphorus (1.3% phosphorus and 0.7% calcium) and 0.3% adenine to induce uremia (SSNIFF Spezialdiäten GmbH). Control animals were fed same diet but without adenine. Every 10 days, a sample of blood was punctured at the tail vein of each animal. Serum and urine creatinine, calcium, and phosphorus were then assessed using standard colorimetric biochemistry analysis (Cobas Mira, Roche, Basel, Switzerland). When a fourfold increase of creatinine was observed compared to control, the rat was considered uremic and suitable for PK experiments. The method was validated using eight animals on control- and adenine-supplemented diet respectively. For PK studies, on the morning of the experimental day, a catheter was inserted in the right carotid artery under halothane anesthesia. Subsequently, rats were allowed to recover for 3 h and uremic and non-uremic rats, respectively, were assigned to three groups of six rats each. […] Blood aliquots were drawn after drug administration, centrifuged, decanted, and stored at −80 °C until serum drug quantification by LC-MS, as well as analysis of serum creatinine, calcium, and phosphorus (Cobas Mira).
as §1

[3] = target: T1, Calcium Channel N-Type (Rattus norvegicus, UniProt Q02294); assay: Off-target 216000; assay type: binding
T1 construct: purchased Eurofins Panlabs Discovery Services Taiwan, Ltd
T1 sequence (Q02294 whole entry): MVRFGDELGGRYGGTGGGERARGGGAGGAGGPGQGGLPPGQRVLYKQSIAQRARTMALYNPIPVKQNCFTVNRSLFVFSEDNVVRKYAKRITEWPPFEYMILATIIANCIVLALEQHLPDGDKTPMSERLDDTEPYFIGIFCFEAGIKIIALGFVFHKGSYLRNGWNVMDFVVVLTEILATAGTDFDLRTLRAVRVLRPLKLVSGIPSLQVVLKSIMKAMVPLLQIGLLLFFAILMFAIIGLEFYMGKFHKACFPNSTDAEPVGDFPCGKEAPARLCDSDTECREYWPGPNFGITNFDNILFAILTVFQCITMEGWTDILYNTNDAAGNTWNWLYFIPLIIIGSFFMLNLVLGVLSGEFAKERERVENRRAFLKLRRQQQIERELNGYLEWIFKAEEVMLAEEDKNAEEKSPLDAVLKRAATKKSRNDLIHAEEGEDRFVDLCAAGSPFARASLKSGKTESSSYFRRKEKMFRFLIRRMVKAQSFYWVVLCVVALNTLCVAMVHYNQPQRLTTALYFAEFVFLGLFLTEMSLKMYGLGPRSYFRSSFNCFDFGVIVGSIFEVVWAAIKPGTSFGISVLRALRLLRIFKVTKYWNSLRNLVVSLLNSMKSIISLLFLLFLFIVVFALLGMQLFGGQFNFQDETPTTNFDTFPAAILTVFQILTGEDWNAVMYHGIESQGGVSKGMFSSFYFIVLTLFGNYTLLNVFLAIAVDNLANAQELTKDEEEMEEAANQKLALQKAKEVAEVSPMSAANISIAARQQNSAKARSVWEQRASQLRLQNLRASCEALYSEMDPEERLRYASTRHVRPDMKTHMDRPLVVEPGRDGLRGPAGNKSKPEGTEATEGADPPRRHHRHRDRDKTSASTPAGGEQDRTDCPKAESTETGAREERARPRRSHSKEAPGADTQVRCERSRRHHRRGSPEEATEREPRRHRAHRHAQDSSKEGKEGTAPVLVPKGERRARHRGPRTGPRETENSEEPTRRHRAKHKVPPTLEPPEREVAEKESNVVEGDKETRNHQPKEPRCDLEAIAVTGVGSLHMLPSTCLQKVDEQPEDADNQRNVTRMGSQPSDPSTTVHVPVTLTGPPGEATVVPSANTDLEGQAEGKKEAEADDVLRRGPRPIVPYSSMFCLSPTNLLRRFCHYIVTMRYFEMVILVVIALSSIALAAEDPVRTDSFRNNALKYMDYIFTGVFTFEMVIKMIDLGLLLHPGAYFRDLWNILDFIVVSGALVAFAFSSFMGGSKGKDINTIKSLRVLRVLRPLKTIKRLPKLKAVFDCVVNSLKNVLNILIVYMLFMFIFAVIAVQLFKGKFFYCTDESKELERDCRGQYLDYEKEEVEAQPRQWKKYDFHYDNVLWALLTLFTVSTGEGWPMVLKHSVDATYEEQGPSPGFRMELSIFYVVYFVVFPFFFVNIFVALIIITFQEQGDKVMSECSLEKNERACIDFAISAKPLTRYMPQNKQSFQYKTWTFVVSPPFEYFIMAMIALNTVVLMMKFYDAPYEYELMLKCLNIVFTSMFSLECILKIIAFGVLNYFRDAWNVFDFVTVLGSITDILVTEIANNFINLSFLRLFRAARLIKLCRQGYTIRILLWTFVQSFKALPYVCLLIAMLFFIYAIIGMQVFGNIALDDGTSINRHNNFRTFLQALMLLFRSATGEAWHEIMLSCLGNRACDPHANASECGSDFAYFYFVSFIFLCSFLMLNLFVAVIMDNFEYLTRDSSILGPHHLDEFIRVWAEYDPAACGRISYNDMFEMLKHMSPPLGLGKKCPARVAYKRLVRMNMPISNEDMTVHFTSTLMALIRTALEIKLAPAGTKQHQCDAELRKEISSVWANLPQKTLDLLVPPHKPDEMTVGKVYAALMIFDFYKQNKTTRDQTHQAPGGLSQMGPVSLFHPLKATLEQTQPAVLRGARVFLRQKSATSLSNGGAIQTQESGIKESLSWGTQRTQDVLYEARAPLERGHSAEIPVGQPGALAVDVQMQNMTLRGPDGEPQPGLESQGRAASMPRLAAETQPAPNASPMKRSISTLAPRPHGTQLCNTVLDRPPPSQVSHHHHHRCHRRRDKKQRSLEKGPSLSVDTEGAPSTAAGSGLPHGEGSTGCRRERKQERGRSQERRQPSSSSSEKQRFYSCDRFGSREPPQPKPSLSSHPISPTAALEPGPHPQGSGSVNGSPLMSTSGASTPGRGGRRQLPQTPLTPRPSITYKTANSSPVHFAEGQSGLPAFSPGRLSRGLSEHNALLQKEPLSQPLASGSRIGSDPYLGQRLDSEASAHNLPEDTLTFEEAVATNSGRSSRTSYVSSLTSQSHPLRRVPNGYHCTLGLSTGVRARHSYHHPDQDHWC
Experimental: (§2) The potential off-target activity of 10 µM (OEG2)2-IP4 was assessed against a panel of 87 enzymes, receptors, or ion channels that are used in standard safety pharmacology screens.
(§3) 3.2. Off-target screening assay
(§4) The experiments were conducted by a contract research organization (Eurofins Panlabs Discovery Services Taiwan, Ltd.) and details on the respective assays can be retrieved via the catalog number provided in Supplementary Table 11 from the company’s webpage
(§5) (https://www.eurofinsdiscoveryservices.com/). […]
(§6) At sacrifice the left tibia of animals of the rat model with dietary adenine/high-phosphate-induced uremia and VC was collected, fixed with 70% v/v EtOH and embedded in methyl methacrylate. The trabecular bone compartment is known to be the most metabolic active i.e. actively re-structured bone compartment in CKD. Therefore, histomorphometric and micro-computed tomography (µCT) analysis of bone was performed on the trabecular compartment. Tibial sections were Goldner-stained for histomorphometric analysis of the proximal metaphysis using the AxioVision Release 4.5 software, as […]
(§7) described previously5. […]

[4] = system: Glutamate, Kainate; assay: Off-target 232710; assay type: binding, Rat; settings: 10 µM
Experimental: as §2, §3
The experiments were conducted by a contract research organization (Eurofins Panlabs Discovery
Services Taiwan, Ltd.) and details on the respective assays can be retrieved via the catalog number
provided in Supplementary Table 11 from the company’s webpage
as §5

[5] = target: T2, Muscarinic M3 (Homo sapiens, UniProt P20309); assay: Off-target 252810; assay type: binding
T2 construct: purchased Eurofins Panlabs Discovery Services Taiwan, Ltd
T2 sequence (P20309 whole entry): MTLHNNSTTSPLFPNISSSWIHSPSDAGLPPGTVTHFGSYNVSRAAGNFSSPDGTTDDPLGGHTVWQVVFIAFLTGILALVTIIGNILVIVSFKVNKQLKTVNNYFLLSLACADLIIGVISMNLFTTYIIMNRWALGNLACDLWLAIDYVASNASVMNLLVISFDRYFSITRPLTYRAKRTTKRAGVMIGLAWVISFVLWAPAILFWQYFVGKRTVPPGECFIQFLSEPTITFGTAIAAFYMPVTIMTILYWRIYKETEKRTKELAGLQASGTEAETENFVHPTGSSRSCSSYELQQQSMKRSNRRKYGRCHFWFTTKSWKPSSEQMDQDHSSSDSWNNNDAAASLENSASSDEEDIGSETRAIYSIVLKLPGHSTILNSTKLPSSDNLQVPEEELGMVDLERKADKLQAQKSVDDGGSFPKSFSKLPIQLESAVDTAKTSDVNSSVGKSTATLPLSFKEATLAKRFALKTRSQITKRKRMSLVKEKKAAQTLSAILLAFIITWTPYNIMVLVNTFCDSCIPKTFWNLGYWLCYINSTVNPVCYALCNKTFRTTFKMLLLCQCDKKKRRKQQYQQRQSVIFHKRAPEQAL
Experimental: as §2, §3, §4, §5, §6, §7

[6] = male, Sprague-Dawley, rat, iv, 10 mg/kg, Healthy
[7] = male, Sprague-Dawley, rat, iv, 10 mg/kg, Uremic

## COCCOCCO[C@@H]1[C@@H](OP(=O)(O)O)[C@H](OCCOCCOC)[C@@H](OP(=O)(O)O)[C@@H](OP(=O)(O)O)[C@H]1OP(=O)(O)O [(OEG2)2-IP4, 4,6-Di-O-(methoxy-diethyleneglycol)-myo-inositol-1,2,3,5-tetrakis(phosphate)]
[1]
  AUC(0-inf): 152 µM·h
  CL/F: 7 ± 2 mL/min/kg
  Cmax: 34 ± 8 µM
  half-life: 3.73 ± 0.733 h
[1]; read-out: AUC0-1440 (converted)
  AUC(0-t): 151 µM·h
[1]; read-out: MRT0-1440 (converted)
  MRT last: 3.5 h
[2]; 10 mg/kg i.v.
  fold longer t1/2 in uremic rats: 1.6 fold
[2]; Healthy, i.v., Time 5 min, individual rats
  plasma concentration (Figure 4g): 34.3554 and 28.9453 and 26.4893 and 36.6347 and 33.1433
[2]; Healthy, i.v., Time 0.25 h, individual rats
  plasma concentration (Figure 4g): 30.5208 and 13.9972 and 12.439 and 10.9827 and 13.2633 and 11.7166
[2]; Healthy, i.v., Time 0.5 h, individual rats
  plasma concentration (Figure 4g): 27.5306 and 9.488 and 4.56 and 3.6178 and 4.794 and 4.014
[2]; Healthy, i.v., Time 1 h, individual rats
  plasma concentration (Figure 4g): 9.6556 and 4.29 and 0.6765 and 0.5745 and 0.5328 and 0.7985
[2]; Healthy, i.v., Time 2 h, individual rats
  plasma concentration (Figure 4g): 7.991 and 1.14 and 0.125 and 0.07468 and 0.07899 and 0.1206
[2]; Healthy, i.v., Time 3 h, individual rats
  plasma concentration (Figure 4g): 3.3004 and 0.5084 and 0.05745 and 0.03303 and 0.0316 and 0.04883
[2]; Healthy, i.v., Time 4 h, individual rats
  plasma concentration (Figure 4g): 2.7015 and 0.1767 and 0.01436 and 0.02585 and 0.02298 and 0.0316
[2]; Uremic, i.v., Time 5 min, individual rats
  plasma concentration (Figure 4g): 32.8173 and 29.5312 and 43.7899 and 28.895 and 62.6472 and 41.0266
[2]; Uremic, i.v., Time 10 min, individual rats
  plasma concentration (Figure 4g): 43.2182 and 28.9366
[2]; Uremic, i.v., Time 0.25 h, individual rats
  plasma concentration (Figure 4g): 27.5292 and 20.3309 and 31.0464 and 22.8615
[2]; Uremic, i.v., Time 0.5 h, individual rats
  plasma concentration (Figure 4g): 20.0681 and 12.3154 and 17.5978 and 17.7285
[2]; Uremic, i.v., Time 1 h, individual rats
  plasma concentration (Figure 4g): 13.305 and 19.9618 and 12.7047 and 6.171 and 9.641 and 11.83
[2]; Uremic, i.v., Time 1.5 h, individual rats
  plasma concentration (Figure 4g): 9.875 and 10.075
[2]; Uremic, i.v., Time 2 h, individual rats
  plasma concentration (Figure 4g): 4.81 and 2.841 and 7.088 and 3.03 and 4.689 and 9.284
[2]; Uremic, i.v., Time 3 h, individual rats
  plasma concentration (Figure 4g): 1.893 and 4.314 and 1.879 and 2.2534
[2]; Uremic, i.v., Time 4 h, individual rats
  plasma concentration (Figure 4g): 1.159 and 0.6736 and 3.1697 and 1.081 and 1.337
[2]; male, Sprague-Dawley, rat, plasma, iv, 10 mg/kg, Healthy, i.v., Time 5 min, individual rats, read-out: plasma concentration (Figure 4g)
  concentration at 5 min: 51.8 µM
[2]; male, Sprague-Dawley, rat, plasma, iv, 10 mg/kg, Healthy, i.v., Time 10 min, individual rats, read-out: plasma concentration (Figure 4g)
  concentration at 10 min: 36.1 µM
[2]; male, Sprague-Dawley, rat, plasma, iv, 10 mg/kg, Uremic, i.v., Time 10 min, individual rats, read-out: plasma concentration (Figure 4g)
  concentration at 10 min: 46 µM
[2]; male, Sprague-Dawley, rat, plasma, iv, 10 mg/kg, Uremic, i.v., Time 0.25 h, individual rats, read-out: plasma concentration (Figure 4g)
  concentration at 0.25 h: 27.7 µM
[2]; male, Sprague-Dawley, rat, plasma, iv, 10 mg/kg, Uremic, i.v., Time 0.5 h, individual rats, read-out: plasma concentration (Figure 4g)
  concentration at 0.5 h: 19 µM
[2]; male, Sprague-Dawley, rat, plasma, iv, 10 mg/kg, Uremic, i.v., Time 1.5 h, individual rats, read-out: plasma concentration (Figure 4g)
  concentration at 1.5 h: 7.2 µM
[2]; [6]
  AUC(0-inf): 18.5 µM·h
  Cmax: 35 ± 9 µM
  clearance: 17.9 ± 7.7 mL/min/kg
  half-life: 0.867 ± 0.233 h
  AUC(0-t): 17.8 µM·h
  MRT last: 0.433 h
[2]; [7]
  AUC(0-inf): 45.6 µM·h
  Cmax: 43 ± 12 µM
  clearance: 5.8 ± 2 mL/min/kg
  half-life: 1.38 ± 0.783 h
  AUC(0-t): 37 µM·h
  MRT last: 0.883 h
[3]
  inhibition at 10 µM: 5%
[4]
  % Inhibition: 17%
[5]
  inhibition at 10 µM: -6%
